Results from ChEMBL document CHEMBL3390844, “Development of substituted 7-phenyl-4-aminobenzothieno[3,2-d] pyrimidines as potent LIMK1 inhibitors” (Medchemcomm, 2011).
Values after ≈ are worked out from the molar mass of the structure shown.

Columns and labels:
[1] = target: T1, LIM domain kinase 1 (Homo sapiens, UniProt P53667); experiment: Inhibition of LIMK1 (unknown origin) assessed as remaining ATP level using cofilin-2 protein as substrate measured after 60 mins incubation with enzyme by KinaseGlo assay
[2] = target: T1, LIM domain kinase 1; experiment: Inhibition of LIMK1 (unknown origin) assessed as ADP formation using cofilin-2 protein as substrate measured after 60 mins incubation with enzyme by Transcreener assay
[3] = Partition coefficient, log D of the compound at pH 7.4 by HPLC analysis; type: physicochemical; conditions: octanol/water
[4] = Plasma protein binding in human by LC-MS analysis; type: ADME, cell-free; conditions: read-out: PPB (converted)
[5] = In vitro intrinsic clearance in human liver microsomes at 1 uM by LC-MS analysis; type: ADME; conditions: read-out: CLH
[6] = Solubility of the compound in phosphate buffer at pH 6.5 by nephelometry; type: physicochemical
[7] = In vitro intrinsic clearance in mouse liver microsomes at 1 uM by LC-MS analysis; type: ADME; conditions: read-out: CLH
[8] = Solubility of the compound in 0.01 M HCl at pH 2 by nephelometry; type: physicochemical
[9] = target: T1, LIM domain kinase 1; experiment: Inhibition of LIMK1-catalyzed cofilin phosphorylation in human ZR-75-1 cells; type: cell-based
[10] = target: LIM domain kinase 2 (Homo sapiens, UniProt P53671); experiment: Inhibition of LIMK2 (unknown origin)
LIM domain kinase 2, sequence (P53671 whole entry, the tested form may be a part): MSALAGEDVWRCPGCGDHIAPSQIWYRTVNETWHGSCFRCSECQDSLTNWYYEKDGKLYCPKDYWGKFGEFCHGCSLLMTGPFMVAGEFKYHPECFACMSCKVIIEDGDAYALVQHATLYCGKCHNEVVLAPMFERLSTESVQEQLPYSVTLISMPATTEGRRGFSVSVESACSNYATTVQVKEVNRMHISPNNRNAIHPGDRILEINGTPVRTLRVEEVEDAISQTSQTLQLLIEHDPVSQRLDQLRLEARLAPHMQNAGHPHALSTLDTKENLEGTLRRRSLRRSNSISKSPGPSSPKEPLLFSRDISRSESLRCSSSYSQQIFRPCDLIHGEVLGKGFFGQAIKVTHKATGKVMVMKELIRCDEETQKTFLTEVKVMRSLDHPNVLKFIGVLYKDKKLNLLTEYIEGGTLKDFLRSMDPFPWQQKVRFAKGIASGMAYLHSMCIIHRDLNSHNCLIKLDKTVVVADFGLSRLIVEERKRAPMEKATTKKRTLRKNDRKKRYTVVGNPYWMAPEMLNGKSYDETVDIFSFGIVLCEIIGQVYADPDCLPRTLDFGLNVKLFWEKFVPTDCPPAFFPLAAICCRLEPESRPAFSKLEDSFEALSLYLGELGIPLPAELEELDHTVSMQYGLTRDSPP

T1 sequence (P53667 whole entry, the tested form may be a part): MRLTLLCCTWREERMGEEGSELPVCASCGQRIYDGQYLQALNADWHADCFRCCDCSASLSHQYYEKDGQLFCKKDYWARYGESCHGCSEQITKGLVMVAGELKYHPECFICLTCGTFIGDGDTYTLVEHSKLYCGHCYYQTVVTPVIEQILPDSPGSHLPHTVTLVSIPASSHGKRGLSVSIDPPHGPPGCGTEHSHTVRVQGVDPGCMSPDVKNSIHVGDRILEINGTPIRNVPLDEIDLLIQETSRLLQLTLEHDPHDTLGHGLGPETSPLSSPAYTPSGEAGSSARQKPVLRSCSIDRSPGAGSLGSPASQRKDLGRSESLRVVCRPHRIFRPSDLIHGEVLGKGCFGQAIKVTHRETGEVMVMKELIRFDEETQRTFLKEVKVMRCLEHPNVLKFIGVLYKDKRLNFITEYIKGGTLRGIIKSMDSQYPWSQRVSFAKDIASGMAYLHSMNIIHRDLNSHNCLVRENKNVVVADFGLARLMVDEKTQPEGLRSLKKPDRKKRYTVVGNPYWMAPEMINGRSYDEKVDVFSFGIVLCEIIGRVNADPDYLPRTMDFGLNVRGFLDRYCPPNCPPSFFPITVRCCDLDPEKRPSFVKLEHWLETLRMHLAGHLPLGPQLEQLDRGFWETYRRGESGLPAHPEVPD

Structure (SMILES)	IC50 [1] [nM]	IC50 [2] [nM]	further results
Nc1ncnc2c1sc1cc(-c3ccc(CO)cc3)ccc12	163	–	–
Cn1c2cc(-c3ccc(NC=O)cc3)ccc2c2ncnc(N)c21	–	498	–
Nc1ccc(-c2ccc3c(c2)sc2c(N)ncnc23)cc1	159	–	–
CC(C)C(=O)Nc1ncc(-c2cc(C(F)F)nn2-c2c(Cl)cccc2Cl)s1	–	–	logD [3]: 3.8; fraction unbound [4]: 0.029
Nc1ncnc2c1sc1cc(-c3cccc(C(=O)N4CCOCC4)c3)ccc12	–	> 1000	–
CC(C)CNC(=O)Nc1cccc(-c2ccc3c(c2)sc2c(N)ncnc23)c1	–	237	–
CS(=O)(=O)c1cccc(-c2ccc3c(c2)sc2c(N)ncnc23)c1	361	–	–
COc1cccc(-c2ccc3c(c2)sc2c(N)ncnc23)c1	149	–	–
Cn1c2cc(-c3ccccc3)ccc2c2ncnc(N)c21	–	–	microsomal CLint at 1 µM [5]: 70 µL/min/mg; logD [3]: 3.4; solubility kinetic [6]: 3.1 µg/mL (≈ 11.3 µM); microsomal CLint at 1 µM [7]: 572 µL/min/mg; solubility kinetic [8]: 12.5 µg/mL (≈ 45.6 µM)
CC(C)NC(=O)Nc1cccc(-c2ccc3c(c2)sc2c(N)ncnc23)c1	–	78	–
CCNC(=O)Nc1cccc(-c2ccc3c(c2)sc2c(N)ncnc23)c1	–	87	IC50 [9]: > 30 µM; microsomal CLint at 1 µM [5]: 24 µL/min/mg; logD [3]: 2.4; solubility kinetic [6]: 1.6 µg/mL (≈ 4.4 µM); microsomal CLint at 1 µM [7]: 68 µL/min/mg; IC50 [10]: 164 nM; solubility kinetic [8]: 12.5 µg/mL (≈ 34.4 µM)
NC(=O)c1cccc(-c2ccc3c(c2)sc2c(N)ncnc23)c1	120	120	IC50 [9]: > 30 µM; microsomal CLint at 1 µM [5]: < 5 µL/min/mg; logD [3]: 1.9; solubility kinetic [6]: 3.1 µg/mL (≈ 9.68 µM); microsomal CLint at 1 µM [7]: 26 µL/min/mg; IC50 [10]: 273 nM; solubility kinetic [8]: 25 µg/mL (≈ 78 µM); fraction unbound [4]: 0.037
Nc1ncnc2c1sc1cc(-c3ccc(O)cc3)ccc12	267	–	–
NC(=O)c1ccc(-c2ccc3c(c2)sc2c(N)ncnc23)cc1	156	–	–
CC(=O)c1ccc(-c2ccc3c(c2)sc2c(N)ncnc23)cc1	172	–	–
CS(=O)(=O)c1ccc(-c2ccc3c(c2)sc2c(N)ncnc23)cc1	376	–	–
COc1ccccc1-c1ccc2c(c1)sc1c(N)ncnc12	220	–	–
CC(=O)Nc1cccc(-c2ccc3c(c2)sc2c(N)ncnc23)c1	395	–	–
Nc1ncnc2c1sc1cc(-c3cccc(NC=O)c3)ccc12	55	55	–
C[C@@H](NC(=O)c1cccc(-c2ccc3c(c2)sc2c(N)ncnc23)c1)C(N)=O	–	294	–
NC(=O)Nc1cccc(-c2ccc3c(c2)sc2c(N)ncnc23)c1	–	145	–
Nc1ncnc2c1sc1cc(-c3ccccc3)ccc12	–	–	microsomal CLint at 1 µM [5]: 114 µL/min/mg; logD [3]: 3.65; solubility kinetic [6]: < 1.6 µg/mL; microsomal CLint at 1 µM [7]: 839 µL/min/mg; solubility kinetic [8]: 6.3 µg/mL (≈ 22.7 µM)
Cn1c2cc(-c3ccc(O)cc3)ccc2c2ncnc(N)c21	–	571	–
N#Cc1ccc(-c2ccc3c(c2)sc2c(N)ncnc23)cc1	828	–	–
Nc1ncnc2c1sc1cc(-c3cccc(O)c3)ccc12	230	–	–

Continued, in another order:

IC50 [1] [nM]	IC50 [2] [nM]	Structure (SMILES)	further results
199	–	Nc1ncnc2c1sc1cc(-c3cccc(Cl)c3)ccc12	–
243	–	CS(=O)(=O)Nc1ccc(-c2ccc3c(c2)sc2c(N)ncnc23)cc1	–
231	–	Nc1cccc(-c2ccc3c(c2)sc2c(N)ncnc23)c1	–
260	–	Nc1ncnc2c1sc1cc(-c3ccccc3O)ccc12	–
–	379	Cn1c2cc(-c3cccc(C(N)=O)c3)ccc2c2ncnc(N)c21	–
–	228	Nc1ncnc2c1sc1cc(-c3cccc(C(=O)NCCO)c3)ccc12	–
–	223	CN1CCN(CCNC(=O)Nc2cccc(-c3ccc4c(c3)sc3c(N)ncnc34)c2)CC1	–
795	–	Nc1ncnc2c1sc1cc(-c3cccnc3)ccc12	–
196	–	Nc1ncnc2c1sc1cc(-c3cccc(C(=O)O)c3)ccc12	–
204	–	COc1ccc(-c2ccc3c(c2)sc2c(N)ncnc23)cc1	–
732	–	Nc1ncnc2c1sc1cc(-c3ccncc3)ccc12	–
129	–	Nc1ncnc2c1sc1cc(-c3cccc(CO)c3)ccc12	–
–	54	CCNC(=O)Nc1ncc(-c2cc(-c3c(C)cc(OC)cc3C)nc(-c3cnccn3)n2)s1	microsomal CLint at 1 µM [5]: < 5 µL/min/mg; logD [3]: 3; solubility kinetic [6]: 1.6 µg/mL (≈ 3.47 µM); microsomal CLint at 1 µM [7]: 10 µL/min/mg; IC50 [10]: 696 nM; solubility kinetic [8]: 1.6 µg/mL (≈ 3.47 µM)
50	–	Nc1ncnc2c1sc1cc(-c3cccc(-c4nn[nH]n4)c3)ccc12	IC50 [9]: > 30 µM; microsomal CLint at 1 µM [5]: < 5 µL/min/mg; logD [3]: 2; solubility kinetic [6]: 6.3 µg/mL (≈ 18.2 µM); microsomal CLint at 1 µM [7]: < 6 µL/min/mg; IC50 [10]: 90 nM; solubility kinetic [8]: 6.3 µg/mL (≈ 18.2 µM); fraction unbound [4]: 0.012
44	–	Nc1ncnc2c1sc1cc(-c3ccc(NC=O)cc3)ccc12	–
998	–	CS(=O)(=O)Nc1ccccc1-c1ccc2c(c1)sc1c(N)ncnc12	–
> 1000	–	Nc1ncnc2c1sc1cc(-c3ccccc3Cl)ccc12	–
181	–	CC(=O)Nc1ccc(-c2ccc3c(c2)sc2c(N)ncnc23)cc1	–
310	–	Nc1ccccc1-c1ccc2c(c1)sc1c(N)ncnc12	–
127	–	Nc1ncnc2c1sc1cc(-c3ccc(-c4nn[nH]n4)cc3)ccc12	–
